A melting point compilation (Tetko et al.; mined from patent text by program, amines drawn as free bases though some values may be those of a salt)

Compared with `Cn1cnc2c1c(=O)n(CCCCCCO)c(=O)n2C`, `CCC(O)(C#Cc1ncn2c1CN(C)C(=O)c1c(Cl)cccc1-2)CC` is higher in melting point: 98 to 100 °C for the first, 186 to 188 °C for the second.

First: Cc1nc2cc3c(cc2nc1C(=O)OC(C)(C)C)OC(C)(C)O3
Second: Cc1c(-c2cc(C(C)(C)C)c(O)c(C(C)(C)C)c2)nc2n1CCS2
The melting point of the first is lower: 104 to 105 °C for the first, 258 to 261 °C for the second.

First: CN(C)c1ccc(C2NCCc3sccc32)cc1 (stereo not drawn)
Second: COc1cc(O)c(C(=O)C=Cc2ccc(N(C)C)cc2)c(OC)c1
The melting point of the first is lower: 95 to 98 °C for the first, 197 °C for the second.

`Nc1nc(OCCc2ccc(Cl)cc2)nc2c1ncn2C1OC(CO)C(O)C1O` (stereo not drawn) and `CC(C)(C)[Si](C)(C)OCCc1c(N)nc(SCc2ccc3ccccc3c2)nc1O` cannot be ordered by melting point: 156 to 159 °C for the first, 156 to 158 °C for the second.

First: CCCCc1cccc(-c2cn(C)cc(-c3ccccc3)c2=O)c1
Second: CCCCc1nc(Cl)c(/C=C(\Cc2ccccc2)C(=O)O)n1Cc1ccc(-c2c(O)c(=O)c2=O)cc1
The melting point of the first is lower: 87 to 89 °C for the first, 155 to 160 °C for the second.

First: COc1ccc2c(ccc3c4ccc(OC)cc4c(=O)n(-c4ccc(O[Si](C)(C)C(C)(C)C)cc4)c23)c1
Second: COc1ccc(-c2nc(C#N)cn2-c2ccc(OC)cc2)cc1
The melting point of the first is higher: 211 to 213 °C for the first, 132 to 134 °C for the second.

Compared with `CC#CCOc1ccc(S(=O)(=O)N(C)C(C(=O)NO)C(C)(C)SCCn2ccnc2)cc1` (stereo not drawn), `CCOC(=O)COc1ccc(NC(=O)c2ccc(C(C)(C)C)cc2)cc1` is higher in melting point: 97 to 100 °C for the first, 119 to 122 °C for the second.

Compared with `CCCCCOC(=O)n1c(N)nc(C#N)c1C#N`, `CCCOC(N)=C(C#N)C(N)=S` is higher in melting point: 166 to 169 °C for the first, 174 °C for the second.

First: COc1cc(CCCC2OC(=O)NC2=O)ccc1O (stereo not drawn)
Second: COC(=O)C1=C(C)NC(C(C)O)=C(C(=O)OC)C1c1ccccc1Cl (stereo not drawn)
The melting point of the first is higher: 147 to 148 °C for the first, 145 to 147 °C for the second.

First: CC(=O)NC[C@H]1CN(c2cc(F)c(N3CCC(n4nnc(N5CCNCC5)n4)CC3)c(F)c2)C(=O)O1
Second: COc1cc2nc(N3CCN(C(=O)CC(=O)c4ccccc4)CC3)nc(N)c2cc1OC
The melting point of the first is lower: 180 to 185 °C for the first, 214 to 215 °C for the second.

Compared with `COC(=O)c1cccc(/C=C/c2cccc(Br)c2)c1`, `NCC(=O)NCC(=O)Nc1ccc(Cl)cc1C(=O)c1ccccc1` is higher in melting point: 79 to 84 °C for the first, 136 to 138 °C for the second.

First: C=C(Cl)CN1C(=O)c2ccccc2Oc2ncccc21
Second: O=[N+]([O-])c1ccccc1OCc1ccc2ccccc2n1
The melting point of the first is lower: 106 to 108 °C for the first, 121 to 122 °C for the second.

`CC(C)(C)OC(=O)NCC1CCCc2ccc(C(=O)O)cc21` (stereo not drawn) and `COc1cc(OC)nc(O[C@@H]2CCCC[C@H]2C(=O)NS(=O)(=O)c2ccccc2)n1` (relative stereo) cannot be ordered by melting point: 172 to 176 °C for the first, 175 °C for the second.

Compared with `CCC(=NOCC=CCl)C1=C(O)CC(c2ccc(NS(C)(=O)=O)cc2)CC1=O` (stereo not drawn), `CCCC(=NOCC)C1=C(O)CC(C2(C)CC(C(C)C)=NO2)CC1=O` (stereo not drawn) is lower in melting point: 125 to 127 °C for the first, 85 °C for the second.

First: Cc1cnc2c(S(=O)(=O)Cl)cccc2c1
Second: Cc1cccc(-c2[nH]c(C(C)C)nc2-c2cccc(-c3ccc(NS(=O)(=O)C4CC4)cn3)c2)n1
The melting point of the first is higher: 158 to 159 °C for the first, 133 to 136 °C for the second.

First: COc1ccc2sc(Nc3ccc(OCCN4CCCC4)cc3)nc2c1
Second: COc1cc(-n2cnc3cc(-c4ccc(Cl)cc4)sc3c2=O)ccc1OCCN1CCCC1
The melting point of the first is lower: 167 to 168 °C for the first, 214 to 215 °C for the second.

First: O=[N+]([O-])c1cc2c(cc1C=Cc1ccccn1)OCO2
Second: CC1Cc2cc3c(cc2C(c2ccc([N+](=O)[O-])cc2)=NN1c1ccc(Cl)nn1)OCO3 (stereo not drawn)
The melting point of the first is lower: 167 to 170 °C for the first, 254 to 255 °C for the second.

Compared with `c1ccc(CN2CCC(NCc3ccc(OCc4ccnc5ccccc45)cc3)CC2)cc1`, `O=C(O)CCC(=NOCc1ccc(OCc2ccccc2)cc1)c1ccccc1` is higher in melting point: 72 to 75 °C for the first, 86 to 87 °C for the second.

Compared with `O=C(Cc1ccc(Cl)cc1)C1(c2ccc(Cl)c(Cl)c2)CCC1`, `CN(C)C(=O)c1ccc(C=CC(=O)c2cccc(OCc3ccc4ccc(Cl)cc4n3)c2)o1` is higher in melting point: 82 to 84 °C for the first, 141 to 142 °C for the second.

First: CCOCc1cncc(-c2ccc3c(c2)nc(N)c2nc(COCC)n(CC(C)(C)O)c23)c1
Second: COc1ccc(C(C)(C)CCC(=O)O)cc1NC(=O)C[C@H]1O[C@H](c2cccc(OC)c2OC)c2cc(Cl)ccc2N(CC(C)(C)CO)C1=O
The melting point of the first is lower: 156 °C for the first, 173 to 174 °C for the second.

First: CCOC(=O)c1sccc1S(=O)(=O)NC(=O)Nc1nc(C)nc(OC)n1
Second: Cc1nc2c(O)c(CCC(=O)c3cccs3)c(C(=O)N(C)C)cn2c1C
The melting point of the first is lower: 166 °C for the first, 234 °C for the second.

Compared with `NS(=O)(=O)c1ccc(-c2noc(-c3cnc4ccc(-c5ccc(Cl)cc5)cn34)n2)s1`, `O=C1CCC(c2ccc(N=C(CCc3ccccc3)c3ccc(O)cc3O)cc2)=NN1` is lower in melting point: 263 °C for the first, 208 to 210 °C for the second.

First: O=C(C=Cc1cccnc1)NC(Cc1c[nH]c2ccccc12)C(=O)CCc1cc(C(F)(F)F)cc(C(F)(F)F)c1 (stereo not drawn)
Second: O=C(O)COc1cccc2c1CCc1sc(SC(Cc3ccccc3)c3ccccc3)nc1-2 (stereo not drawn)
The melting point of the first is lower: 138 to 139 °C for the first, 201 to 204 °C for the second.

First: CC1(C)C=CC(=Cc2ccc(F)cc2)C1(O)Cn1ccnc1 (stereo not drawn)
Second: Cc1c([N+](=O)[O-])cnn1-c1c(Cl)cc(C(F)(F)F)cc1Cl
The melting point of the first is higher: 172 °C for the first, 91 to 92 °C for the second.
